In PMC5503534, “Stable aneuploid tumors cells are more sensitive to TTK inhibition than chromosomally unstable cell lines” (Oncotarget, 2017):
Read-outs that look alike come from different tables or passages of the source.

Experiments:
[1] = system: patient-derived colorectal carcinoma organoids; test: Organoids drug sensitivity and viability assay; type: cell-based, human
Protocol: The establishment and characterization of the human colon cancer organoids has been described. The organoids were cultured in drops of Geltrex LDEV-Free Reduced Growth Factor Basement Membrane Matrix (Gibco, cat no. A1413202) in DMEM/F12 medium (Thermo), supplemented with 1% (v/v) penicillin/streptomycin (Gibco), 1% Hepes buffer, pH7.5, 1% L-glutamine (Gibco), 1 μg/mL R-spondin (Sigma), 100 ng/mL Noggin (Peprotech), B27 vitamin A-free (Invitrogen, cat no. 12587010), 1 mM n-acetyl cysteine (Sigma), 10 mM nicotinamide (Sigma), 50 ng/mL EGF (BD Biosciences), 500 nM A83-01 (Tocris), 10 μM SB202190 (Sigma), 10 μM Y-27632 (Sigma) and 10 nM Prostaglandin E2 (Cayman). Medium was refreshed every four days and organoids were splitted by treatment with TryPLE Express (Gibco, cat. no. 12604013).
Organoids were dissociated by TryPLE Express treatment and filtered using a 40 μm nylon cell strainer (Falcon). The organoids were re-suspended in Geltrex at a density of 250,000 cells/mL and seeded in the wells of 96-well plates (Corning, cat no. 3903) at 10 μl per well. Compounds were added four days after plating and 72 hours later viability was determined using Cell-Titer Glo 3D Cell Viability Assay (Promega, Madison USA). Experiments were performed in three biological replicates and technical triplicates were averaged per experiment.

[2] = system: 66 cancer cell lines (44 cell lines); design: method as in earlier work; conditions: cited from earlier work
[3] = system: DoTc2 4510 cervix carcinoma cell line; test: Cell proliferation assay (ATPlite), DoTc2 4510; type: cell-based, human; conditions: 5 day proliferation assay
Protocol: (§1) Cell proliferation assays were carried out as described using ATPlite 1step™ (Perkin Elmer, Groningen, The Netherlands). Exposure time was 72 or 120 hours as indicated in the Legends to the Figures. Percentage growth was calculated, relative to the growth of unexposed cells, and relative IC50s were fitted using a four-parameter logistics curve (XLfit 5.3, IDBS). For Figure 4A and 7 dose response curves were redrawn in Prism. To compare the inhibitory potency of compounds in proliferation assays with HCT 116 parental and tetraploid clones, pIC50 (−^10logIC50) values were compared in three independent experiments. A two-tailed Student's t-test was performed to determine whether differences in sensitivity (ΔpIC50) were statistically significant. Caspase 3/7 activity of cancer cells was measured using Caspase-Glo 3/7 Assay kit (cat no. G8093, Promega, Madison USA). Viability of T-ALL cell samples was determined using ATPlite and exposure of 72 hours as described previously.

[4] = system: A-172 glioblastoma cell line; test: Cell proliferation assay (ATPlite), A-172; type: cell-based, human; conditions: 5 day proliferation assay
Protocol: as §1

[5] = system: HCT 116, LoVo, A-172, DoTc2 4510, MG-63, OVCAR-3 cell lines; test: Time-lapse microscopy, sensitive and resistant cell lines; type: cell-based, human; conditions: 100 nM
Protocol: The activity of the mitotic checkpoint was measured by the time between the breakdown of the nuclear envelop and the onset of anaphase (Figure 2A). Under the vehicle-treated control conditions, all sensitive cells were able to accomplish a normal mitosis in approximately 35 minutes (HCT 116, 30 min; LoVo, 41 min; A172, 36 min; Figure 2A and Supplementary Figure 1). In contrast, the three resistant cell lines spent more time in mitosis, i.e., almost one hour (MG-63, 53 min), or up to 2 and 3 hours (DoTc2 4510, 122 min; OVCAR-3, 173 min).
HCT 116 diploid and tetraploids stably expressed green fluorescent protein-tagged histone 2B (H2B-GFP). All other cell lines were pre-incubated with SiR-DNA (Spirochrome, Switzerland) in order to visualize DNA. Cells were cultured in Leibovitz L15 CO2-independent cell culture medium in 6-well glass bottom chamber (LabTek Corp., Australia) and synchronized by treatment with 2 mM thymidine. After 24 hours of synchronization, and 4 hours before the start of the imaging experiment, medium was replaced by medium without thymidine. […] Image Z-stacks were acquired with 3-μm intervals using a sCMOS camera (DeltaVision RT; Applied Precision, GE Healthcare, Issaquah, WA) and processed using ImageJ software (NIH, Bethesda, MD, USA). Chromosome mis-segregation phenotypes co-occurred and many combinations existed. For clarity, all the events were scored and included: more than two phenotypes, mitotic slippage, DNA bridge, micro-nuclei and multipolar spindle.

[6] = system: post-tetraploid HPT4 cells; test: Cell proliferation assay, post-tetraploid HPT4; type: cell-based, human; conditions: HPT4, five days
Protocol: Cancer cell lines and hTERT-RPE1 retinal pigment epithelial cells were purchased from the American Type Culture Collection (ATCC) (Manassas, VA, U.S.A.) from 2011 to 2014 [41] and cultured in ATCC-recommended media. All experiments were carried out within nine passages of the original vials from ATCC who authenticated the cancer cell lines by short tandem repeat analysis. We verified the mutant status of seven frequently mutated cancer genes (i.e., BRAF, CDKN2A, CTNNB1, EGFR, KRAS, PIK3CA and TP53) by full exome or targeted sequencing. Sequencing results were compared to COSMIC version 75 of the Genomics of Drug Sensitivity in Cancer data base and provided additional authentication of the identity of the cell lines. The isolation and characterization of post-tetraploid clones from HCT 116 has been described previously. The mutation status of the CDKN2A, CTNNB1, KRAS and PIK3CA genes were confirmed by sequence analysis in both the HCT 116 parental cell line and post-tetraploid clones. All experiments were carried out within nine passages of the original cell stocks that were transferred from the Max Planck Institute of Biochemistry (Martinsried, Germany) to Netherlands Translational Research Center.
as §1

full-length Aurora B = target: T1, full-length Aurora B (Homo sapiens, UniProt Q96GD4); test: Surface plasmon resonance binding kinetics, Aurora B; conditions: SPR
T1 construct: to the kinase domain of TTK and full-length Aurora B; purchased Carna Biosciences, Inc., Kobe, Japan; host or cells: Sf9 insect cells
T1 sequence (Q96GD4 whole entry, the tested form may be a part): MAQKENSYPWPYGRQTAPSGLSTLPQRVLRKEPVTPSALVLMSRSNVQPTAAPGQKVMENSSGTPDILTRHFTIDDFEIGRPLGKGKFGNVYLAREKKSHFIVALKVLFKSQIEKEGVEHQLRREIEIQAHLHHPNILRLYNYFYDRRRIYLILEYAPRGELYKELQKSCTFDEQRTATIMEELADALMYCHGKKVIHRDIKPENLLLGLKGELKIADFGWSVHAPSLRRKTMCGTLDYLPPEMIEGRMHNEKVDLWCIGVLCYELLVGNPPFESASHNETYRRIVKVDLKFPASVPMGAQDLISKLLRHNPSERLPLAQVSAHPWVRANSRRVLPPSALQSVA
From the text: Originally, the compound was identified in a phenotypic screen for molecules that can induce stem-cell like phenotypes. Later this property was attributed to its ability to inhibit the mitotic kinase Aurora B [39].

`CCc1cccc(CC)c1NC(=O)c1ccn2c1CCc1cnc(Nc3ccc(N4CCN(C)CC4)cc3OC)nc1-2` [NTRC 0066-0] gave a ΔpIC50 ([1]; All organoids, NTRC 0066-0 vs reversine) of 1.17, a pIC50 ([1]; All organoids, geometric average) of 7.59 and a ΔpIC50 ([1]; organoid p14, NTRC 0066-0 vs reversine) of 1.34. It also gave a pIC50 ([1]; organoid p14, three days) of 7.65, an IC50 ([1]; organoid p14, three days, read-out: IC50) of 22.5 nM and a pIC50 ([1]; organoid p18, three days) of 7.68. It also gave an IC50 ([1]; organoid p18, three days, read-out: IC50) of 22.1 nM, a ΔpIC50 ([1]; organoid p28, NTRC 0066-0 vs reversine) of 1.22 and a pIC50 ([1]; organoid p28, three days) of 7.43. For the same compound, the IC50 ([1]; organoid p28, three days, read-out: IC50) was 37 nM, the “times more potent than reversine” value ([1]; organoids) was 10 times and the IC50 ([1]; organoids from three different patients, read-out: average IC50) was 27 nM. The IC50 ([2]; 3 days, geometric average in 44 cell lines) was 67 nM, the IC50 ([2]; 5 days, geometric average in 66 cancer cell lines) was 98 nM and the IC50 [3] was 225 nM. For the same compound, the IC50 [4] was 34 nM, the time-in-mitosis ([5]; all cell lines, nuclear envelope breakdown to anaphase onset) was “approximately 20 min” and the defective anaphases ([5]; resistant cell lines) was 63–71%. The defective anaphases ([5]; sensitive cell lines) was “at least 60%”, the “Efficacy (%)” value ([6]; average of three experiments) was 48% and the IC50 ([6]; geometric average of three experiments) was 44 nM. For the same compound, the Kd (full-length Aurora B; KD = kd/ka) was 907 nM, the ka (full-length Aurora B; geometric average) was 13400 M⁻¹ s⁻¹ and the kd (full-length Aurora B; geometric average) was 0.0122 s⁻¹.
